Columns and labels:
Format in all cases: biochemical
VGLUT2 [1] = target: T1, VGLUT2 (Rattus norvegicus, UniProt Q9JI12); experiment: Val-evoked [3H]L-glutamate uptake by proteoliposomes, […] min; conditions: 10 mM Cl-, 100 uM L-glutamate, pH 7.0, 27 C
T1 sequence (Q9JI12 1-582): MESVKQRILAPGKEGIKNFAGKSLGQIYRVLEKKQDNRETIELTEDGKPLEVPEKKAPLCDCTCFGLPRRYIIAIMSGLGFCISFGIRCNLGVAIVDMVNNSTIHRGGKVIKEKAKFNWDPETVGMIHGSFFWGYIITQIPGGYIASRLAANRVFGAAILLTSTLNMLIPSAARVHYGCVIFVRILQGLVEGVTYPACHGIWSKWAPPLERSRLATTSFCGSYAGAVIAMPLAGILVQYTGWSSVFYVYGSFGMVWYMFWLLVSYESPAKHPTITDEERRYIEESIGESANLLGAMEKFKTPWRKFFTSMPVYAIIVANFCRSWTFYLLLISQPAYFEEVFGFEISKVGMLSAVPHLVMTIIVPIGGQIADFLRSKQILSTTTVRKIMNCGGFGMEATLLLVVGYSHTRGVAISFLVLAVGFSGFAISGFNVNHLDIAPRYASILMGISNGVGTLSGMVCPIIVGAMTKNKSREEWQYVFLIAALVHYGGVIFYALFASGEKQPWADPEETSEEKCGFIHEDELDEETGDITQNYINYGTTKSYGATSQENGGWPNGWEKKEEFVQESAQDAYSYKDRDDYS

VGLUT2 [2] = target: T1, VGLUT2; experiment: as above; conditions: 10 mM Cl-, pH 7.0, 27 C
VGLUT2 [3] = target: T1, VGLUT2; experiment: as above
VGAT = target: T2, VGAT (Rattus norvegicus, UniProt O35458); experiment: GABA uptake by proteoliposomes
T2 sequence (O35458 1-525): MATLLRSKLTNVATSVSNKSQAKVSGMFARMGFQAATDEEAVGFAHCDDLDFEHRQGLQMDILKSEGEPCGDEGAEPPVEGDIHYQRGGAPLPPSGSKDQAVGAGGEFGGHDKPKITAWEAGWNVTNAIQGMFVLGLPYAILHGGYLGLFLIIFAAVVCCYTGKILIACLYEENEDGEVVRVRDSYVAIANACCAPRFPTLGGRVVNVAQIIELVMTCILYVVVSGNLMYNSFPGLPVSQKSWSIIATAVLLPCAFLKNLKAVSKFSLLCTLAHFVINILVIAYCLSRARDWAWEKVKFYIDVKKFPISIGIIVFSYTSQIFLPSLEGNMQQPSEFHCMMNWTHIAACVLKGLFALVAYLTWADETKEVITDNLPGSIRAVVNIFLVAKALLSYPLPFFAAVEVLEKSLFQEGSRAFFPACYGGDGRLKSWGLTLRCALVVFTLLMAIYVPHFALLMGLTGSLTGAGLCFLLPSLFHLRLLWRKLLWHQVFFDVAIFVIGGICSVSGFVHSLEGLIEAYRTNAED

VMAT2 = VMAT2 (Rattus norvegicus, UniProt Q01827); experiment: pH-driven [3H]serotonin uptake by proteoliposomes; conditions: 10 mM Cl-, 10 uM serotonin, pH 7.0 outside; inactive
VNUT = target: T3, VNUT (Homo sapiens, UniProt Q9BYT1); experiment: Val-evoked […]ATP uptake by proteoliposomes; conditions: 10 mM Cl-, 0.1 mM ATP, pH 7.0, 27 C; prevented by high Cl-; reversible
T3 sequence (Q9BYT1 1-436): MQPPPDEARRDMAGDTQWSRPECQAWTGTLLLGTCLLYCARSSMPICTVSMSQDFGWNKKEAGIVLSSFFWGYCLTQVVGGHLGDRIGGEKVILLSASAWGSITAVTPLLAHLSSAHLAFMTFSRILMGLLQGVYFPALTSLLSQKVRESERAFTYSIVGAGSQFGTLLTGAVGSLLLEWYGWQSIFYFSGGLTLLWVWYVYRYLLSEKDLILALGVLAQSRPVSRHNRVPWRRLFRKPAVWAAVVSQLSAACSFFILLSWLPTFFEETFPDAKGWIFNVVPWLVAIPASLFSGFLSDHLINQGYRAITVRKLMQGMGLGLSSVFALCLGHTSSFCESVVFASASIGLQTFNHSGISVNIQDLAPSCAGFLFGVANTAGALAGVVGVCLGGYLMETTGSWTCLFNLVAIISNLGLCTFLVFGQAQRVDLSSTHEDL

Sequence of VMAT2 (Q01827 whole entry): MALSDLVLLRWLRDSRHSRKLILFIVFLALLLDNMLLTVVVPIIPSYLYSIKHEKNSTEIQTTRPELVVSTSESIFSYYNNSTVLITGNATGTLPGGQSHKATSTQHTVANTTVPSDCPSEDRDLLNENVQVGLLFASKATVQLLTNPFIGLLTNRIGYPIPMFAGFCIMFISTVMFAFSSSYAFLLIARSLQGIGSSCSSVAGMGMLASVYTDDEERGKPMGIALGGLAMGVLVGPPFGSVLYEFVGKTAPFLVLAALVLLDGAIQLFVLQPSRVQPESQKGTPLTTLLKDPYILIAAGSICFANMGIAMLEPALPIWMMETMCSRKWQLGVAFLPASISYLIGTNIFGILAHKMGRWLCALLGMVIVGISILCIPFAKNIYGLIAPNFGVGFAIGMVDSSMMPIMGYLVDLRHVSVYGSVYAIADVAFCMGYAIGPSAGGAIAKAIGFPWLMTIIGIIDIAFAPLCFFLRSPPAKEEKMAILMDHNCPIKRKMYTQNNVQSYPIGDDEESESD

Structure (SMILES): C[C@@H](O)CC(=O)O [3-hydroxybutyrate]
- dose-dependent inhibition (VGLUT2 [1]): ketone bodies (acetoacetate and 3-hydroxybutyrate) inhibited glutamate transport

Structure (SMILES): Cc1cc(-c2ccc(/N=N/c3ccc4c(S(=O)(=O)O)cc(S(=O)(=O)O)c(N)c4c3O)c(C)c2)ccc1/N=N/c1ccc2c(S(=O)(=O)O)cc(S(=O)(=O)O)c(N)c2c1O [Evans blue]
- Val-evoked [3H]L-glutamate uptake by proteoliposomes, 1 min (VGLUT2 [2]): sensitivity to Evans blue and diisothiocyanostilbene disulfonic acid (DIDS)

Structure (SMILES): CC(=O)CC(=O)O [acetoacetate]
- IC50 (VGLUT2 [3]): 200 µM
- IC50 (VGAT): > 5000 µM
- pH-driven [3H]serotonin uptake by proteoliposomes (VMAT2): partially purified VMAT2 was found to be entirely independent of Cl^− and acetoacetate
- dose-dependent inhibition (VNUT): uptake of ATP by VNUT was similarly inhibited by acetoacetate

Structure (SMILES): CC(=O)C(=O)O [pyruvate]
- dose-dependent inhibition (VGLUT2 [1]): pyruvate, an intermediate in the glycolytic pathway also inhibited glutamate transport
